Values joined by “and” are separate entries in the source; they are usually repeats but may differ in a detail not shown here. Equal entries are not always repeated. Where two headings read alike, the source gives them in different places.
Columns and labels:
[1] = Zeta-potential measurement; assay type: physicochemical; settings: for Zeta-pot. / mV: zeta potential of peptide, Fig S15 source data
Procedure, shortened: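 One-day room-temperature aggregation at 1 mg/mL in PBS (pH 7.4) preceded measurement; samples then went into 1 mM KCl. Triplicates per sample, two independent experiments averaged.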

[2] = assay type: physicochemical; parameters: key to Fibril / Fibril Formation / TEM 2cat / Fibril: 1 = fibrils present; 0 non-fibrillar structures; settings: for Fibril: 1 = fibrils present
[3] = system: HIV-1 infection of TZM-bl cells; assay: HIV-1 infectivity enhancement assay, β-galactosidase luminescence; assay type: cell-based; settings: for Rel-to EFC / n-fold to virus: Fig S8 panels B, D; for Log10 Infection Rel EF-C: HIV-1 infection of TZM-bl cells
[4] = β-sheet content by ATR-FT-IR; assay type: physicochemical
Procedure, shortened: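 Fluorescence at 470 nm (365 nm excitation) was read 20 min after adding fluorescamine to DMSO-dissolved filtrate and unfiltered PNF, then CR computed as 100 − 100 × filtrate/original. Secondary structure came from ATR FT-IR spectra of lyophilized PNF powder.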

[5] = Feb2021, 1.3 µM value relative to virus only (0 µM)
[6] = Feb2021, log10 of infectivity relative to EF-C
[7] = Feb2021, n-fold infectivity relative to EF-C
[8] = Feb2021, unrounded values of the 1.3 µM column
[9] = infectivity class (low / medium / high) of each library peptide, main list in c1-c6, same classes repeated in sub-lists of sequences containing the hydrophobicity/charge patterns P+,H0,P+,H0,P0,H0,P0, P+,H0,P0,H0,P0,H0,P0, P+,H0,P0,H0
[10] = log10 of HIV-1 infection of TZM-bl cells relative to EF-C, Fig S15 source data, asymmetric std dev errors
[11] = category derived from the zeta potential
[12] = Feb2021, Log10 of infectivity relative to EF-C
[13] = Feb2021, figures match the 1.3 µM column
[14] = Feb2021, infectivity enhancement relative to EF-C
[15] = Feb2021, infectivity relative to virus only
[16] = infectivity enhancement relative to EF-C
[17] = infectivity n-fold relative to virus alone
[18] = Feb2021, n-fold enhancement relative to EF-C
[19] = Feb2021 run, infectivity n-fold relative to virus alone
[20] = Feb2021 run, log10 of infectivity relative to EF-C
[21] = Feb2021 run, n-fold infectivity relative to EF-C

Row | Substance | Zeta category ( +1 = if > 4 mV;-1 = if < -4 mV; 0 = -4mV to 4 mV) [1] | Zeta Pot. / mV ([1]; mean, Std Zeta in next column) | Zeta-pot. / mV [1] | TEM: 1= fibrils, 0= aggregates (micelle), 0.5 = aggregates and fibrils, -1 = nothing obersved, STD prep [2] | Rel-to EFC (Feb-2021) [3, 7] | infectivity [3, 9] | Log10 Inf. rel. to EF-C [3, 10] | FTIR ß-sheet content/ % ([4]; ATR-FT-IR) | Zeta Pot. / mV [1] | Zeta category ( +1 = if > 4 mV;-1 = if < -4 mV; 0 = -4mV to 4 mV) [1, 11] | Log10 of Rel to EFC (Feb2021) [3, 12] | Absolute Infectivity / RLU /s (Feb2021) [3, 13] | Rel-to EFC (Feb-2021) [3, 14] | n-fold to virus (Feb2021) [3, 15] | Zeta category ( +1 = if > 4 mV;-1 = if < -4 mV; 0 = -4mV to 4 mV) ([1]; category from zeta potential) | Zeta Pot. / mV ([1]; mean, Std in separate column) | Rel-to EFC (Feb-2021) [3, 18] | further results
1 | CRFRVPF [CN8] | 1 (+1 = if > 4 mV) | 4.413 mV | 4.413 mV | 0 | 0.01992 | low | -1.701 | 11.43% | – | – | – | – | – | – | – | – | – | n-fold to virus (Feb2021) [3, 5]: 0.837; Log10 of Rel to EFC (Feb2021) [3, 6]: -1.701; Absolute Infectivity / RLU /s (Feb2021) [3, 8]: 376.7 RLU /s
2 | HHHHKIKIKIKIYYYY [TM6] | 1 (+1 = if > 4 mV) | 13.2 mV | 13.2 mV | 0.5 | 0.6784 | medium | -0.1685 | 0% | 13.2 mV | 1 (+1 = if > 4 mV) | -0.1685 | 20713.33333 RLU /s | 0.6784 | 28.5 | – | – | – | Rel-to EFC [3, 16]: 0.6784; n-fold to virus [3, 17]: 28.5
3 | KAKAQA [JJA2 / TM153] | -1 (-1 = if < -4 mV) | -14.08 mV | -14.08 mV | 0 | 0.01805 | low | -1.743 | 40% and 40.34% | – | – | -1.743 | – | – | – | -1 (-1 = if < -4 mV) | -14.08 mV | 0.01805 | n-fold to virus (Feb2021) [3, 5]: 0.7586; Absolute Infectivity / RLU /s (Feb2021) [3, 8]: 146.7 RLU /s; n-fold to virus (Feb2021) [3, 19]: 0.7586; Log10 of Rel to EFC (Feb2021) [3, 20]: -1.743; Rel-to EFC (Feb-2021) [3, 21]: 0.01805; FTIR ß-sheet content/ % [4]: 40.34%
4 | KFKFQFNMW | – | – | – | – | – | – | – | – | – | – | – | – | – | – | – | – | – | Zeta-Pot. [1]: 22.6; Zeta-Potential / mV ([1]; zeta-potential of peptide, source data of Figure 2C): 16.22 mV; Zeta-Potential / mV ([1]; zeta-potential of the peptide assemblies, mean, Figure 3A source data): 22.6 mV; TEM 2cat ([2]; Fig S10 panel D): 1; Fibril / Fibril Formation ([2]; TEM, 1 mg/mL, uranyl acetate stain, qualitative): 1; Fibril ([2]; TEM, 0 = non-fibrillar): 1; Fibril ([2]; TEM, 0 = non-fibrillar structures): 1; TEM 2cat ([2]; category: fibrils present or non-fibrillar): 1; Rel-EFC ([3]; 1.3 µM peptide, infection relative to EF-C (QCKIKQIINMWQ = 1)): 0,45; Log10 Infection Rel EFC ([3]; 1.3 µM peptide, log10 of infection relative to EF-C): -0,35; Log Infectivity ([3]; Fig. S7 panel A (plotted against β-sheet content), Log10 infection relative to EF-C, TZM-bl cells, asymmetric std dev errors): -0.3503; Log10 Infection Rel EF-C ([3]; Log10 of infection rate relative to EF-C, Figure 3A source data): -0.35; Log10 Infection Rel EF-C ([3]; infection rate relative to EF-C, log10, data of Figure 2D): -0.3503; Log10 Infection Rel EF-C ([3]; infection rate relative to EF-C, log10, source data of Figure 2C): -0.3503; Log10 of Rel to EFC (Feb2021) ([3]; Log10 of infection relative to EF-C, all peptides of FigS16): -0.35; Abs. Inf. ([3]; absolute infection signal, HIV-1 on TZM-bl cells, β-galactosidase luminescence): 6690; Log10 Inf. rel. to EF-C ([3]; log10 of HIV-1 infection of TZM-bl cells relative to EF-C (EF-C = 0)): -0.3503; b -sheet / % ([4]; Fig. S7 panel A, β-sheet content by ATR-FT-IR): 38.191%
5 | KFKFQFW [TM71] | 1 (+1 = if > 4 mV) | 6.49 mV | 6.49 mV | 1 | 0.1622 | medium | -0.7899 | 0% | 6.49 mV | 1 (+1 = if > 4 mV) | -0.7899 | 4953 RLU /s | 0.1622 | 6.817 | – | 6.49 mV | – | n-fold to virus (Feb2021) [3, 19]: 6.817; Log10 of Rel to EFC (Feb2021) [3, 20]: -0.7899; Rel-to EFC (Feb-2021) [3, 21]: 0.1622
6 | KIKIQIC [TM112 / CN11] | 1 (+1 = if > 4 mV) | 19.93 mV | 19.93 mV | 1 | 0.6076 | medium | -0.2164 | 53% and 52.93% | 19.93 mV | 1 (+1 = if > 4 mV) | -0.2164 | 9447 RLU /s | 0.6076 | 25.53 | 1 (+1 = if > 4 mV) | – | 0.6076 | Log10 of Rel to EFC (Feb2021) [3, 6]: -0.2164; Rel-to EFC [3, 16]: 0.6076; n-fold to virus [3, 17]: 25.53
7 | KIKQIINM [JGA2] | 1 (+1 = if > 4 mV) | 16.3 mV | 16.3 mV | 1 | – | medium | -0.3458 | 44% | – | – | -0.3458 | – | – | – | 1 (+1 = if > 4 mV) | 16.3 mV | 0.451 | Rel-to EFC (Feb-2021) ([3]; infectivity enhancement relative to EF-C (=1), Feb2021 run): 0.451; n-fold to virus (Feb2021) ([3]; infectivity n-fold relative to virus only, Feb2021 run): 18.95; Log10 of Rel to EFC (Feb2021) ([3]; log10 of infectivity relative to EF-C, Feb2021 run): -0.3458; FTIR ß-sheet content/ % [4]: 44%
8 | KLKLQLL [TG4 / (KM2)] | -1 (-1 = if < -4 mV) | -4.93 mV | -4.93 mV | 1 | 0.006983 | low | -2.156 | 0% | -4.93 mV | -1 (-1 = if < -4 mV) | -2.156 | 163.3 RLU /s | 0.006983 | 0.2934 | – | – | – | infectivity ([3]; infectivity class (low / medium / high) of the peptide in the sequence-pattern analysis, Fig. S22-A4, class limits not given): low
